Article PMC6351562, “Structure, function, and inhibition of drug reactivating human gut microbial β-glucuronidases” (Scientific Reports, 2019)
Like-named read-outs stand apart in the source and are kept apart here.

Experiments:
[1] = biological target: T1, Ruminococcus gnavus GUS (RgGUS) (Mediterraneibacter gnavus, UniProt A0A2N5PVZ8); test: In vitro inhibition assay (pNPG hydrolysis); assay type: biochemical
T1 sequence (A0A2N5PVZ8 1-603): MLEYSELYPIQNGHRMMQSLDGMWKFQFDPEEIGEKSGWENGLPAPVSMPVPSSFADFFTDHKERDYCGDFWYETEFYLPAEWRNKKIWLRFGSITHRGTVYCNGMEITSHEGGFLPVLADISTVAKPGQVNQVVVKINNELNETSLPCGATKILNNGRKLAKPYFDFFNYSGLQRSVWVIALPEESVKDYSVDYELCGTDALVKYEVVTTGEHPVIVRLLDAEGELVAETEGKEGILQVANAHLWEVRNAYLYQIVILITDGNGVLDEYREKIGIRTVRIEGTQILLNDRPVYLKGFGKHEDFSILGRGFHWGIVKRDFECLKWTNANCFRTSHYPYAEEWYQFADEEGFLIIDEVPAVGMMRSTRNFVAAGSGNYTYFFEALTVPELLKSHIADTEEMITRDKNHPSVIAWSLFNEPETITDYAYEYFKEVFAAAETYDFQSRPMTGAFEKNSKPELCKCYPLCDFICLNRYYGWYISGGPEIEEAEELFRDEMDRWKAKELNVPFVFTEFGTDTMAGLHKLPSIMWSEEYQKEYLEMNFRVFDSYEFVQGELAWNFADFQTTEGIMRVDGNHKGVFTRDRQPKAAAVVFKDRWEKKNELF

[2] = biological target: T2, Bacteroides fragilis GUS (BfGUS) (Bacteroides fragilis, UniProt Q5LIC7); design: method as in PMID 21051639, PMID 26364932, PMID 30062115; details: earlier work; cited from earlier work
T2 sequence (Q5LIC7 whole entry): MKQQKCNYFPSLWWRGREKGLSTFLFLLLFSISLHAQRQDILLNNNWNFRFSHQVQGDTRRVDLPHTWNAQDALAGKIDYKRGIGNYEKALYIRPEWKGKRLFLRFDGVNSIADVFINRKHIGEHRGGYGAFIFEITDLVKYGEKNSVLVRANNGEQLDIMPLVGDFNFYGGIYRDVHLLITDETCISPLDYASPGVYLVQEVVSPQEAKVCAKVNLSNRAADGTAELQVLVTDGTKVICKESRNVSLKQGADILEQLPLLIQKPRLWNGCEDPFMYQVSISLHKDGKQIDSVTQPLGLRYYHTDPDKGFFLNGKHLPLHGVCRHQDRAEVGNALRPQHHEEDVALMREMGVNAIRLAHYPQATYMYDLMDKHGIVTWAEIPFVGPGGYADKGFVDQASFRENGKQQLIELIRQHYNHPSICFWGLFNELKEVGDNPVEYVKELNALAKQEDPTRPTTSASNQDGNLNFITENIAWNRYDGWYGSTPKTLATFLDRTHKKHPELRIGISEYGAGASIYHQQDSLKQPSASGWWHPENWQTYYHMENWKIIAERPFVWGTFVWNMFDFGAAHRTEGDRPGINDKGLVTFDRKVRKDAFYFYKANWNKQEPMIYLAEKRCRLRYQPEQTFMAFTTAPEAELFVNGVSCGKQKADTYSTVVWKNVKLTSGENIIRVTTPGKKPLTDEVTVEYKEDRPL

[3] = biological target: T3, Eubacterium eligens GUS (EeGUS) (Lachnospira eligens, UniProt C4Z6Z2); test: In vitro inhibition assay (pNPG hydrolysis); assay type: biochemical; details: pNPG 900 µM
T3 sequence (C4Z6Z2 1-611): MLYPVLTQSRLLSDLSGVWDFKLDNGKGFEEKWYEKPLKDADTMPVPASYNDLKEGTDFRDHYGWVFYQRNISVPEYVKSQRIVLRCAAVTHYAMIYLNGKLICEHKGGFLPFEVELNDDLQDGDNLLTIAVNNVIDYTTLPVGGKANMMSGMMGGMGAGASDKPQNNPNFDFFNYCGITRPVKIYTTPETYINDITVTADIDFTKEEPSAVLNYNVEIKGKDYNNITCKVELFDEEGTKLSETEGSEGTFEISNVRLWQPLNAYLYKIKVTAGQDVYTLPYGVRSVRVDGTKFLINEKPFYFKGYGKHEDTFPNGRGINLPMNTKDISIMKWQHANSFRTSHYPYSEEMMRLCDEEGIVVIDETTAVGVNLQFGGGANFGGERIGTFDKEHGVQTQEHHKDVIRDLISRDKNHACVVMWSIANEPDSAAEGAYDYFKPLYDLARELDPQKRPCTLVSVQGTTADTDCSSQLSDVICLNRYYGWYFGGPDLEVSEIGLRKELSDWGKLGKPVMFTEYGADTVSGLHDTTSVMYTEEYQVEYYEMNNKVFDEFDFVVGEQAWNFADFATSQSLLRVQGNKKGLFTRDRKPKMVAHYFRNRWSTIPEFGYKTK

[4] = biological target: T4, Lactobacillus rhamnosus GUS (LrGUS) (Lacticaseibacillus rhamnosus, UniProt A0A2A5L2J1); test: In vitro inhibition assay (pNPG hydrolysis); assay type: biochemical
T4 sequence (A0A2A5L2J1 1-603): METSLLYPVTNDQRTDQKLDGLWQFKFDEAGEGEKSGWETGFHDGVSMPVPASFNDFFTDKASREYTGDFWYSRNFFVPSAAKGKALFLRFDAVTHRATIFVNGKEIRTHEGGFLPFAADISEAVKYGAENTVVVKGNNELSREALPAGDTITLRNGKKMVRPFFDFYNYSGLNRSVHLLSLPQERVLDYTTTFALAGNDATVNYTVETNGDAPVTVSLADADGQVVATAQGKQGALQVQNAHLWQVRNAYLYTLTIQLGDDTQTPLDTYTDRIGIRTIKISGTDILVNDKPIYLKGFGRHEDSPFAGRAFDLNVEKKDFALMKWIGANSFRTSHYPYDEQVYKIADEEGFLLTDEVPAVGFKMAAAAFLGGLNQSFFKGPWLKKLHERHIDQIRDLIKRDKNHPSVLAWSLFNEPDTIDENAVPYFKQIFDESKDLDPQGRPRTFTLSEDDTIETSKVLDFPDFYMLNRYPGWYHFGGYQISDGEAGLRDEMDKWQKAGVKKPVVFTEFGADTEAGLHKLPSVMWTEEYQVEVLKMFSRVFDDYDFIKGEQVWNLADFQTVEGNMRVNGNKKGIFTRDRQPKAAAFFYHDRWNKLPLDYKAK

[5] = biological target: T2, Bacteroides fragilis GUS (BfGUS); test: In vitro inhibition assay (pNPG hydrolysis); assay type: biochemical
E. coli GUS (EcGUS) = E. coli GUS (EcGUS) (Escherichia coli, UniProt P05804); design: method as in PMID 21051639, PMID 26364932, PMID 30062115; details: earlier work; cited from earlier work
E. coli GUS (EcGUS), sequence (P05804 whole entry): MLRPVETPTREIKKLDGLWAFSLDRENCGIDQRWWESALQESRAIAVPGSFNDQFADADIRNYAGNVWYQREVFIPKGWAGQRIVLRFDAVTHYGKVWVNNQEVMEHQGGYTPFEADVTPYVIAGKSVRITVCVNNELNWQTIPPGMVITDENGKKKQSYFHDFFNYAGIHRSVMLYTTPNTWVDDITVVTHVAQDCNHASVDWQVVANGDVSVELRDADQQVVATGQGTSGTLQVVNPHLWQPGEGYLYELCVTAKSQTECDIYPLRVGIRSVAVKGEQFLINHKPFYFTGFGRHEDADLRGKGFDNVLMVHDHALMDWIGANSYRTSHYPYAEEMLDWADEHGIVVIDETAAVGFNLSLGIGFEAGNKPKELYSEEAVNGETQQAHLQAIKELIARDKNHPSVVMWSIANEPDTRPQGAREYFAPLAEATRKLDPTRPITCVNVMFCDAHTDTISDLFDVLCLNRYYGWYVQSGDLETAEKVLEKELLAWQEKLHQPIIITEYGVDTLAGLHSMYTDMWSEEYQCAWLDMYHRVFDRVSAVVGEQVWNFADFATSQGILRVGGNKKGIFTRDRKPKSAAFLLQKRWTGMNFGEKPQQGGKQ

EcGUS F365A = assay type: biochemical, E. coli; details: IC50 curves, Fig. S14
[6] = biological target: Clostridium perfringens GUS (CpGUS) (Clostridium perfringens, UniProt Q8VNV4); test: biochemical; assay type: biochemical
[7] = read-out: Inhibitor 1 (IC50, nM) pH 7.5, pH 7.5, pNPG 900 µM
[8] = pH 7.5, pNPG 900 µM, read-out: UNC10201652 (IC50, nM) pH 7.5
[9] = read-out: UNC10201652 (IC50, nM) pH 6.5

For CCOc1ccc(NC(=S)N(CCO)Cc2cc3cc(C)cc(C)c3[nH]c2=O)cc1 [Inhibitor 1], the IC50 [1] is listed as greater than 100000 nM, the IC50 [1, 7] is listed as greater than 100000 nM and the “inhibition of BfGUS (in words)” value [2] is listed as “did not inhibit”. It also gave an IC50 ([3]; Inhibitor 1 (IC50, nM) pH 6.5, pH 6.5) greater than 100000 nM, an IC50 ([3]; Inhibitor 1 (IC50, nM) pH 7.5, pH 7.5) greater than 100000 nM and an IC50 [4] greater than 100000 nM. The IC50 [4, 7] was greater than 100000 nM, the IC50 [5] was greater than 100000 nM and the IC50 [5, 7] was greater than 100000 nM. The “inhibition of EcGUS (in words)” value (E. coli GUS (EcGUS)) was “potent”, the “potency toward EcGUS F365 mutant compared with WT” value (EcGUS F365A) was “less potent” and the IC50 ([6]; Inhibitor 1 (IC50, nM) pH 6.5) was greater than 100000 nM. It also gave an IC50 ([6]; Inhibitor 1 (IC50, nM) pH 7.5) greater than 100000 nM.

In the case of C1CCc2c(c(N3CCOCC3)nc3sc4c(N5CCNCC5)nnnc4c23)C1 [UNC10201652], the IC50 [1, 8] is listed as greater than 100000 nM, the IC50 [1, 9] is listed as greater than 100000 nM and the “inhibition of BfGUS (in words)” value [2] is listed as “did not inhibit”. It also gave an IC50 ([3]; pH 6.5, 1 hour end point, read-out: UNC10201652 (IC50, nM) pH 6.5) of 1900 ± 100 nM, an IC50 ([3]; pH 7.5, 1 hour end point, read-out: UNC10201652 (IC50, nM) pH 7.5) of 410 ± 30 nM and an IC50 [4, 8] greater than 100000 nM. For the same compound, the IC50 [4, 9] was greater than 100000 nM, the “inhibition (in words)” value ([5]; UNC10201652, text in picture of Fig. 7b) was “No Inhibition” and the IC50 [5, 8] was greater than 100000 nM. For the same compound, the IC50 [5, 9] was greater than 100000 nM, the “inhibition of EcGUS (in words)” value (E. coli GUS (EcGUS)) was “potent” and the “potency toward EcGUS F365 mutant compared with WT” value (EcGUS F365A) was “less potent”. For the same compound, the “decrease in potency from pH 7.5 to pH 6.5” value [6] was 6 fold, the IC50 ([6]; IC50) was 26 to 160 nM and the IC50 ([6]; pH 6.5, read-out: UNC10201652 (IC50, nM) pH 6.5) was 160 ± 10 nM. It also gave an IC50 ([6]; pH 7.5, read-out: UNC10201652 (IC50, nM) pH 7.5) of 26 ± 3 nM.
